According to paper PMC7321108, “1-Hydroxyanthraquinones Containing Aryl Substituents as Potent and Selective Anticancer Agents” (Molecules, 2020):

Assays:
[1] = test system: SNB-19 glioblastoma cells; assay: MTT cytotoxicity assay, SNB-19; format: cell-based; details: Homo sapiens, 72 h incubation, mean ± SEM of three experiments, read-out: Cytotoxicity (GI50) against SNB-19
How it was run: (§1)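 72 h compound exposure (DMSO vehicle), RPMI-1640/10% calf serum, 37 °C, 5% CO2; triplicates. 1% MTT 4 h, DMSO solubilization, OD 450 nm. GI50 = conc. giving 50% cell death / 2-fold OD drop vs untreated wells; mean ± SEM of three independent experiments.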

[2] = test system: U-87MG glioblastoma cells; assay: MTT cytotoxicity assay, U-87MG; format: cell-based; details: Homo sapiens, 72 h incubation, mean ± SEM of three experiments, read-out: Cytotoxicity (GI50) against U-87MG
How it was run: as §1

[3] = test system: DU-145 prostate cancer cells; assay: MTT cytotoxicity assay, DU-145; format: cell-based, human; details: Homo sapiens, DU-145, 72 h, 72 h incubation, mean ± SEM of three experiments, read-out: Cytotoxicity (GI50) against DU-145
How it was run: as §1

[4] = test system: MT-4 cells of T-cellular human leucosis; assay: MTT cytotoxicity assay, MT-4; format: cell-based; details: MT4, 72 h incubation, mean ± SEM of three experiments, read-out: Cytotoxicity (GI50) against MT-4
How it was run: as §1

[5] = test system: MDA-MB-231 breast cancer cells; assay: MTT cytotoxicity assay, MDA-MB-231; format: cell-based; details: Homo sapiens, 72 h incubation, mean ± SEM of three experiments, read-out: Cytotoxicity (GI50) against MDA-MB-231
How it was run: as §1

[6] = MTT cytotoxicity assay, normal hTERT-immortalized lung fibroblasts; format: cell-based; details: human, hTERT-immortalized lung fibroblasts (normal cell line), 72 h incubation, mean ± SEM of three experiments, read-out: Cytotoxicity (GI50) against hTERT Lung Fibroblasts
How it was run: as §1

[7] = test system: pUC19 DNA plasmid; assay: Gel retardation (electrophoretic mobility shift) assay; format: binding; details: 0.5 µg pUC19 plasmid, 0.025 µM test compound, room temperature 1 h, agarose gel 60 V 4 h
Experimental: The interaction of compounds 13, 15, 16, 23, 25 27, 28, 35, 40 and 44 with DNA was experimentally confirmed by study of the electrophoretic mobility. For this the gel retardation assay was performed. Doxorubicin in different concentration was used as a positive control. In order to avoid destruction of the possible complex of DNA with compounds, the electrophoresis was performed at low voltage. The results are presented at Figure 3.
To study the interaction between test compounds and DNA the electrophoretic mobility shift assay was performed. 0.5 µg of pUC19 plasmid was incubated with 0.025 µM of test compounds at room temperature for 1 h. After that the electrophoresis was performed in agarose gel (1/2%) in TBE buffer (60 V, 4 h). For visualization the gel was staining with ethidium bromide and analyzed with Bio-Rad gel documentation system.

[8] = test system: SNB-19 cells; assay: Cell cycle analysis by flow cytometry (Hoechst 33342), SNB-19; format: cell-based, human; details: SNB-19, treated at GI50 concentration, 24 h
Experimental: Due to the fact that the implementation of the antitumor potential of the currently existing antitumor agents is carried out by acting on various biological targets, at the next stage we performed the cell cycle analysis and DNA synthesis. Cell cycle analysis of 1-hydroxy-4-phenyl-9,10-anthraquinone 13, 1-hydroxy-4-(2,3-dimethoxyphenyl)-9,10- anthraquinone 16, 1-hydroxy-4-(furan-3-yl)-9,10-anthraquinone 23 and 1-hydroxy- 2-(2,3-dimethoxyphenyl)-9,10-anthraquinone 28 against SNB-19 cells for 24 h produced interesting results. After examining the data for compounds 13 and 16 (Table 3, Figure 4C,D), good number of cells are distributed in S phase, i.e., initiated DNA replication mechanism and also in G0/G1 phase, i.e., initial phase of cell cycle. G1 and G2 are the growth phases in cell cycle analysis, whereas S phase is a synthetic phase wherein DNA replication and DNA synthesis take place. The 2-aryl substituted compound 28 initiated the G0/G1 phase in analogy with doxorubicin and mitomycin. […] Further, compounds play a vital role in controlling the regulation of Sub-G1 and G2/M phases. Some difference in the mechanism of operation of 4-aryl substituted 13,16 and 2-aryl substituted 9,10-anthraquinones 28 has been observed during the progression of cell cycle like: S phase was highly disturbed by 13; G0/G1 phase was highly disturbed by 28. […] This observation can be explained by the influence on the cell repair systems that respond to the intercalation of compounds in DNA. […] Further, mitoxantrone promotes the arrest of S phase of cell cycle.
For cell cycle analysis cells were seeded in 6-well plates (30,000 per plate) and incubate for adhesion for 24 h. […] Cells were washed with PBS twice, harvested, pelleted and resuspended in 0.5 mL of PBS. For staining the Hoechst 33342 Ready Flow Reagent (Invitrogen) was used according to the instruction. CytoFLEX flow cytometer (Beckman Coulter) was used for analysis. The results are presented as a percentage of cell population standing in different stages of the cell cycle.

SMILES | GI50 [1] [µM] | GI50 [2] [µM] | GI50 [3] [µM] | GI50 [4] [µM] | GI50 [5] [µM] | GI50 at 72 h [6] [µM] | Retardation of plasmid DNA (electrophoretic mobility) [7] | Population (% Cell Distribution) G0/G1 [8] [%] | Population (% Cell Distribution) G2/M [8] [%] | Population (% Cell Distribution) S [8] [%] | Population (% Cell Distribution) Sub-G1 [8] [%] | Population (% Cell Distribution) Super-G2 [8] [%] | melting point
COc1cccc(-c2ccc(O)c3c2C(=O)c2ccccc2C3=O)c1OC [Compound 16, 1-(2,3-Dimethoxyphenyl)-4-hydroxyanthracene-9,10-dione] | 9.7 ± 0.41 | > 100 | 5.4 ± 0.17 | > 100 | 16.5 ± 0.88 | 48 ± 3.87 | cause a retardation of plasmid DNA | 36.6 | 18.6 | 34.3 | 3.0 | 7.6 | 213.6 °C (dec.)
O=C1c2ccccc2C(=O)c2c(-c3ccccc3)ccc(O)c21 [Compound 13, 1-Hydroxy-4-phenylanthracene-9,10-dione] | 24.3 ± 1.08 | > 100 | 1.1 ± 0.19 | 71 ± 0.7 | 31.2 ± 1.65 | 67.1 ± 8.06 | cause a retardation of plasmid DNA | 29.0 | 13.9 | 48.5 | 4.0 | 4.6 | 207.3 °C (dec.)
